“Also recorded” adds a separate entry of the source.
Columns and labels:
mTORC1 [1] = target: T1, mTORC1 (Homo sapiens, UniProt P42345); experiment: mTORC1 complex stability/composition, mTOR co-immunoprecipitation of Raptor and mLST8; conditions: 1 mM Mal-CoA added to cell lysates before immunoprecipitation
T1 construct: endogenous mTORC1 complexes were purified from HEK293FT cells; endogenous in cells; host or cells: HEK293FT (immunoprecipitation of endogenous mTOR); the 4E-BP1 substrate was made in E. coli BL21 RP
Method: For the mammalian endogenous protein co-immunoprecipitation experiments, cells of a near-confluent 10-cm dish were lysed in CHAPS IP buffer (50 mM Tris pH 7.5, 0.3% CHAPS detergent, 150 mM NaCl, 50 mM NaF, 2 mM Na-vanadate and 0.011 g ml^−1 β-glycerophosphate) supplemented with 1×PhosSTOP phosphatase inhibitors and 1×EDTA-free cOmplete protease inhibitors (11873580001, Roche) for 10 min on ice. The samples were clarified by centrifugation (20,000g, 15 min, 4 °C) and the supernatants were subjected to immunoprecipitation by the addition of 3 μl of each antibody, incubation at 4 °C with rotation for 3 h, followed by incubation (4 °C with rotation) with 30 μl of a pre-washed Protein A agarose bead slurry (cat. no. 11134515001, Roche) for an additional hour. The beads were then washed four times with CHAPS IP wash buffer (50 mM Tris pH 7.5, 0.3% CHAPS detergent, 150 mM NaCl and 50 mM NaF) and boiled in 1×SDS loading buffer. A portion of the samples was kept aside as the input before the addition of antibodies. The samples were analysed by SDS–PAGE and the presence of co-immunoprecipitated proteins was detected by immunoblotting with the appropriate specific antibodies.
To test whether Mal-CoA influences mTORC1 complex stability/composition, 1 mM Mal-CoA lithium salt solution was added to the lysates before the immunoprecipitation of mTOR, as described earlier. […]

mTORC1 [2] = experiment: mTORC1 activity in HEK293FT cells (WT and knockout lines), phosphorylation of S6K, 4E-BP1, Grb10, TFEB by immunoblot; format: cell-based, human
Method: Data represent the median fluorescence intensity of OPP Alexa Fluor 488; n = 6 biological replicates from two independent experiments. b,c,e,g,i,k,l, Data are the mean ± s.e.m. *P < 0.05, **P < 0.005, ***P < 0.0005. […] Source numerical data and unprocessed blots are provided. Source data
Amino-acid-starvation experiments were carried out as described before[42],[43]. […] For the lipid depletion experiments, cells were cultured in medium containing 10% charcoal-stripped FBS (A3382101, Thermo Fisher Scientific), instead of full FBS, for 24 h before treatments with FASN inhibitors were performed. For FA supplementation, each FA was first conjugated to 10% FA-free BSA (fraction V; cat. no. 10735086001, Roche) for 1 h at 50 °C in a 50:50 volumetric ratio. The BSA-conjugated C16:0, C16:1, C18:1 and C18:2 FAs (100 μM) were then added to the media both 16 h previous to and at the start of the treatment with FASN inhibitors.
For standard SDS–PAGE and immunoblotting experiments, cells from a well of a 12-well plate were lysed in 250 μl of ice-cold Triton lysis buffer (50 mM Tris pH 7.5, 1% Triton X-100, 150 mM NaCl, 50 mM NaF, 2 mM Na-vanadate and 0.011 g ml^−1 β-glycerophosphate) supplemented with 1×PhosSTOP phosphatase inhibitors (cat. no. 4906837001, Roche) and 1×cOmplete protease inhibitors (cat. no. 11836153001, Roche) for 10 min on ice. The samples were clarified by centrifugation (20,000g, 15 min, 4 °C) and the supernatants were boiled in 1×SDS sample buffer (5×SDS sample buffer: 350 mM Tris–HCl pH 6.8, 30% glycerol, 600 mM DTT, 12.8% SDS and 0.12% bromophenol blue). The band intensities were quantified using the ImageJ software.

## CC(C)(COP(=O)(O)OP(=O)(O)OCC1OC(n2cnc3c(N)ncnc32)C(O)C1OP(=O)(O)O)C(O)C(=O)NCCC(=O)NCCSC(=O)CC(=O)O (stereo not drawn) [Mal-CoA, malonyl-CoA]
mTORC1 [1]
  mTORC1 stability (interaction of mTOR with Raptor and mLST8): did not influence
mTORC1 [2]; ED Fig. 4n, relative to DMSO
  p-S6K(T389)/S6K, Mean: 0.5757
mTORC1 [2]; HEK293FT, 250 μM Mal-CoA in medium, 30 min
  mTORC1 activity after exogenous addition of Mal-CoA: significant drop; also recorded: capable of downregulating

Source: paper PMC10495264 (Nature Cell Biology, 2023)
